Measured values: ChEMBL document CHEMBL1137061 (Bioorg Med Chem Lett, 2004)
pKi: −log10 of the molar value.

How the values were obtained:
Type in all cases: cell membranes, Membrane
[1] = biological target: Neuronal acetylcholine receptor subunit alpha-7 (Rattus norvegicus, UniProt Q05941)
[2] = biological target: Neuronal acetylcholine receptor; alpha4/beta2 (Rattus norvegicus, UniProt P09483+P12390); test: Inhibition of [3H]epibatidine binding to alpha 4 beta 2 nicotinic acetylcholine receptor of rat cortex membranes
[3] = biological target: Muscarinic acetylcholine receptor; test: Inhibition of [3H]N-methylscopolamine binding to muscarinic receptor of rat cortex membranes

Chain of Neuronal acetylcholine receptor; alpha4/beta2 (P09483 whole entry): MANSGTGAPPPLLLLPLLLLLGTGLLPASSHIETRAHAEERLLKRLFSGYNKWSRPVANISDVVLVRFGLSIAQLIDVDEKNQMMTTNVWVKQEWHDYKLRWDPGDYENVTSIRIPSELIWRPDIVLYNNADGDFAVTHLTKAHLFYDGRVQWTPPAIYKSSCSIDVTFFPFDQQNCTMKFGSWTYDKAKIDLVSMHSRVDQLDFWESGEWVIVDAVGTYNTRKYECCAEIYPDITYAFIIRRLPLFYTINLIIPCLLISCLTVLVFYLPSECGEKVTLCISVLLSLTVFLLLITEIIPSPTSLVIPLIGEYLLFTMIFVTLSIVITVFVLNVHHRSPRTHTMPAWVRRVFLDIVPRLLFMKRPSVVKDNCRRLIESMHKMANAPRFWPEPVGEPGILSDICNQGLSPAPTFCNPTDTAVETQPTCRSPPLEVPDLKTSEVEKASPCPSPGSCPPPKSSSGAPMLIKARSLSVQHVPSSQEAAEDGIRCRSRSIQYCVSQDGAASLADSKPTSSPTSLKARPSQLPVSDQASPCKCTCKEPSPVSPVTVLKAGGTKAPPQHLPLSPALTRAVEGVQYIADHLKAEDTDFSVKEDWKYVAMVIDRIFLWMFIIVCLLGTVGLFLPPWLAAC
Chain of Neuronal acetylcholine receptor; alpha4/beta2 (P12390 whole entry): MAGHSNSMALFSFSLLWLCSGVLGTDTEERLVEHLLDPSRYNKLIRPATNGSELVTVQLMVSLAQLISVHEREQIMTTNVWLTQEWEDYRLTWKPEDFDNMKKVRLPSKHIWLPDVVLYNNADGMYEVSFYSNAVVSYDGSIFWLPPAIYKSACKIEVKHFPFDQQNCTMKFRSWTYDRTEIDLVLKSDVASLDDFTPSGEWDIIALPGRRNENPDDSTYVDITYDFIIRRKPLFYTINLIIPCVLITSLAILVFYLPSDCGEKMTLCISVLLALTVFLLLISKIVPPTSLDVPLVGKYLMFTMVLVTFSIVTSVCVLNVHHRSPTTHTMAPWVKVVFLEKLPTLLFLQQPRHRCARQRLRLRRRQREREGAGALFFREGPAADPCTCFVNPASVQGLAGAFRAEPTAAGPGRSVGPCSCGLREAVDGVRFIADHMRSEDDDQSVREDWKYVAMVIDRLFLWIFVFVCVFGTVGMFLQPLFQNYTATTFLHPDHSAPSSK
Chain of Neuronal acetylcholine receptor subunit alpha-7 (Q05941 whole entry): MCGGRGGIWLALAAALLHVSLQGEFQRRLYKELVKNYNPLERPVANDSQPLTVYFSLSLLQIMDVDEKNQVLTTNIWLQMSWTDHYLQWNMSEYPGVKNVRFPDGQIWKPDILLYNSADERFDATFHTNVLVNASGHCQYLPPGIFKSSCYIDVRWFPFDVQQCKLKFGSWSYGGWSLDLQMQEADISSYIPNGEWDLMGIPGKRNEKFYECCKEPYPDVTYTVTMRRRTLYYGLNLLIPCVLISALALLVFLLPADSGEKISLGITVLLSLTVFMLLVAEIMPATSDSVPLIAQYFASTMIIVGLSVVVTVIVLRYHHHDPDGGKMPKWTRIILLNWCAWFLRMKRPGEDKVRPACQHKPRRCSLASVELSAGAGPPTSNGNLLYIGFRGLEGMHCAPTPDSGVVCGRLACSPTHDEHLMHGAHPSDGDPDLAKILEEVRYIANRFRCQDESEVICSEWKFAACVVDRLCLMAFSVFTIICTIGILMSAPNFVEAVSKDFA

SMILES	pKi [1]	pKi [2]	Ki [3] [µM]
CC(C)O/N=C/[C@H]1CCCN1C	4.33	5.26	
CC(C)O/N=C\[C@H]1CCCN1C		4.84	
CC=NOC[C@@H]1CCCN1C	< 4.30	6.17	> 50
CC(C)=NO[C@@H]1CCCN(C)C1		< 4.30	
CC(C)=NO[C@H]1CCCN(C)C1		< 4.30	
C/C=N\OC[C@@H]1CCCN1C	< 4.30		> 50
CC(C)=NOC[C@@H]1CCCN1C	4.31	6.28	> 50
Cc1cc([C@@H]2CCCN2C)on1 [ABT-418]	5.92	7.70	
CC(C)O/N=C/[C@@H]1CCCN1C	< 4.30		17
CC(C)O/N=C\[C@@H]1CCCN1C		5.72	
C/C=N\OC[C@H]1CCCN1C		5.24	
